Source: ChEMBL document CHEMBL3991601, “The target landscape of clinical kinase drugs” (Science, 2017)
pKd: −log10 of the molar value. Calls of active or inactive are those of the source.

Experiments:
[1] = target: Casein kinase I isoform gamma-1 (Homo sapiens, UniProt Q9HCP0)
[2] = target: Mitogen-activated protein kinase 10 (Homo sapiens, UniProt P53779)
[3] = target: T1, Glycine--tRNA ligase (Homo sapiens, UniProt P41250)
T1 sequence (P41250 whole entry): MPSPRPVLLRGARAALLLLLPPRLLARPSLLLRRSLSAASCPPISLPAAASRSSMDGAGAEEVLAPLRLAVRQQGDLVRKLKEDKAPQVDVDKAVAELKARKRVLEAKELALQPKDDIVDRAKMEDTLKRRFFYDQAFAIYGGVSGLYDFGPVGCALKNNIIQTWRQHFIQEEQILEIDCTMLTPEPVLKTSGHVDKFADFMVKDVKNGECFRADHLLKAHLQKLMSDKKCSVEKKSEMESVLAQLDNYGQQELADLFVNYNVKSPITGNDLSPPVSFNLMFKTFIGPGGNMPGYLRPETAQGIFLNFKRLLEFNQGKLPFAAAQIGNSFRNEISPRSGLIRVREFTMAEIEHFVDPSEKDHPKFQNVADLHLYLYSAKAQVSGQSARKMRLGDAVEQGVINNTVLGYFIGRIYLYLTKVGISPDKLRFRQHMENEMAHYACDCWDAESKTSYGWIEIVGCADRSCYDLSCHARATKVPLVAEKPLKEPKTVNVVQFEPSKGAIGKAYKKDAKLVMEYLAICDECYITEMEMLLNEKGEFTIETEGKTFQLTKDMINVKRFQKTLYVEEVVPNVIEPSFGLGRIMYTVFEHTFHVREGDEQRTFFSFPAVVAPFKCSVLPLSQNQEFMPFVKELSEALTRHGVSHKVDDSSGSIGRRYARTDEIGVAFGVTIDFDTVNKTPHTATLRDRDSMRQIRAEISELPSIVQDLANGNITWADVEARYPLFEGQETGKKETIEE

[4] = target: T2, Rab-like protein 3 (Homo sapiens, UniProt Q5HYI8)
T2 sequence (Q5HYI8 whole entry): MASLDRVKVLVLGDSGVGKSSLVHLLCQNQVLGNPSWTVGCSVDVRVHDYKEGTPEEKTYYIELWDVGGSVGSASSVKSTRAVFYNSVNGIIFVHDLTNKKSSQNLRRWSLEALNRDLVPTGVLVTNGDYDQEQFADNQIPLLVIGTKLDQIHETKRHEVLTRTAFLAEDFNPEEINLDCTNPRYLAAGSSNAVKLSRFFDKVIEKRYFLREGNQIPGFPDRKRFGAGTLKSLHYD

[5] = target: T3, cGMP-dependent protein kinase 1 (Homo sapiens, UniProt Q13976)
T3 sequence (Q13976 whole entry): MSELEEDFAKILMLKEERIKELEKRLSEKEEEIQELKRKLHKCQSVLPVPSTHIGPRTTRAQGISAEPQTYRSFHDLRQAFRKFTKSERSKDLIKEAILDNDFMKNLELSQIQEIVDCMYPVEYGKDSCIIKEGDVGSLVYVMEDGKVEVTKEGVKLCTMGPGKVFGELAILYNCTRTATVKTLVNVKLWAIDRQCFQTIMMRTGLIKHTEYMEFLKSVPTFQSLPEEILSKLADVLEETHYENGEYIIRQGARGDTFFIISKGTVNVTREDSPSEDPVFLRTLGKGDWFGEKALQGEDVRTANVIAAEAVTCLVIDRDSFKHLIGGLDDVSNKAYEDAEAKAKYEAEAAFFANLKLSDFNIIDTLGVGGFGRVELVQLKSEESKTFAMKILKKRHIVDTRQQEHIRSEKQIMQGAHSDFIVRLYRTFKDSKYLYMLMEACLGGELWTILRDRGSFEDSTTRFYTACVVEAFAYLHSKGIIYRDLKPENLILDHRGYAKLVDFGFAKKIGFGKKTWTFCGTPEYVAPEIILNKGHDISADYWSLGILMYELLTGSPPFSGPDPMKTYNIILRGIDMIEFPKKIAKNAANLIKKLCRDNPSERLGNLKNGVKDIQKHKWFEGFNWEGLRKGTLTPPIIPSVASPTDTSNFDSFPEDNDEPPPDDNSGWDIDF

[6] = target: Tyrosine-protein kinase Fyn (Homo sapiens, UniProt P06241)
Tyrosine-protein kinase Fyn, sequence (P06241 whole entry): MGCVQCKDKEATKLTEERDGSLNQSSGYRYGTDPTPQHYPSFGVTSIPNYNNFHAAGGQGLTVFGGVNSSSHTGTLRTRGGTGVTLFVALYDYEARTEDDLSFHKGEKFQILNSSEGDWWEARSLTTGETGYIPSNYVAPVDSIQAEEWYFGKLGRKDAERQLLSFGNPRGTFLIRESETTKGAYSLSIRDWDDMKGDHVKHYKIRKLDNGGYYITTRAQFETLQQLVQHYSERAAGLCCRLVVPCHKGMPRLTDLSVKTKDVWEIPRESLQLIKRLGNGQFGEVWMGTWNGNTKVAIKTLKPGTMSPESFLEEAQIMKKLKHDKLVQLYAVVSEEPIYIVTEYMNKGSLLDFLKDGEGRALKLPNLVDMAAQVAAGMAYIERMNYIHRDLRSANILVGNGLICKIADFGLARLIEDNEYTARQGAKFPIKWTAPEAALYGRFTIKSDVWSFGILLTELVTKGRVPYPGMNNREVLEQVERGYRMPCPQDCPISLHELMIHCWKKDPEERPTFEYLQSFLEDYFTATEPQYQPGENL

[7] = target: T4, ATP-dependent RNA helicase DDX42 (Homo sapiens, UniProt Q86XP3)
T4 sequence (Q86XP3 whole entry): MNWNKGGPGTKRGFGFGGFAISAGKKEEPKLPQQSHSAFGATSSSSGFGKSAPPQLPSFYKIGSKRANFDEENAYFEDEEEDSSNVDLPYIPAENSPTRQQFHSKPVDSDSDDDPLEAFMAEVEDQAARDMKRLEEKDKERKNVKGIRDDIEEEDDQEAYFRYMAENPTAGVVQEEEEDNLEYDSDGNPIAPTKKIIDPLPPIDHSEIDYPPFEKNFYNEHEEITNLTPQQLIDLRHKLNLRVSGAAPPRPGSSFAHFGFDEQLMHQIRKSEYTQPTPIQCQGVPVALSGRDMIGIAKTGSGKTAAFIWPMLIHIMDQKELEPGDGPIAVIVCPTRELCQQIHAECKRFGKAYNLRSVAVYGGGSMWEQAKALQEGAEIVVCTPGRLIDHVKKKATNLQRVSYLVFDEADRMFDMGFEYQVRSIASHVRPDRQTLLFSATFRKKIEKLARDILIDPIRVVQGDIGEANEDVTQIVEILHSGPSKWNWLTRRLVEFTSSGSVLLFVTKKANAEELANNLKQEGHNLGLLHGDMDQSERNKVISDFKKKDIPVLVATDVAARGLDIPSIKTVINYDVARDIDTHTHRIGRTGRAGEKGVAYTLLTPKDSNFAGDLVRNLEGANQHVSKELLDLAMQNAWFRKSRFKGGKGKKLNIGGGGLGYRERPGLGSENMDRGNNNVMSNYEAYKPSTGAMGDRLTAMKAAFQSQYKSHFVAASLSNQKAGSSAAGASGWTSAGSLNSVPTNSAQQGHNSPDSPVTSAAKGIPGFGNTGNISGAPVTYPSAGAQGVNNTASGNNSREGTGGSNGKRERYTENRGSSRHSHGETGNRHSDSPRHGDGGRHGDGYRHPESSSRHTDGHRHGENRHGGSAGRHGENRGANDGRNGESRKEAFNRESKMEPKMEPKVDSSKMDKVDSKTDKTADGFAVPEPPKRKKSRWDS

[8] = target: Macrophage-stimulating protein receptor (Homo sapiens, UniProt Q04912)
Macrophage-stimulating protein receptor, sequence (Q04912 25-304 limits assumed): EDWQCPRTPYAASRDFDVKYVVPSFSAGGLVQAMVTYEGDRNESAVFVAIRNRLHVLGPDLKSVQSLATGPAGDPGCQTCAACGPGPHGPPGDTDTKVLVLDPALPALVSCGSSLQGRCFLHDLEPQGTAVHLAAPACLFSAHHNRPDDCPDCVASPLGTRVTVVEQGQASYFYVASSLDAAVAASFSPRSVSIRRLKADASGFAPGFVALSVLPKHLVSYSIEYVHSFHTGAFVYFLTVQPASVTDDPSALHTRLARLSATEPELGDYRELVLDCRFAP
Macrophage-stimulating protein receptor, sequence (Q04912 310-1400 limits assumed): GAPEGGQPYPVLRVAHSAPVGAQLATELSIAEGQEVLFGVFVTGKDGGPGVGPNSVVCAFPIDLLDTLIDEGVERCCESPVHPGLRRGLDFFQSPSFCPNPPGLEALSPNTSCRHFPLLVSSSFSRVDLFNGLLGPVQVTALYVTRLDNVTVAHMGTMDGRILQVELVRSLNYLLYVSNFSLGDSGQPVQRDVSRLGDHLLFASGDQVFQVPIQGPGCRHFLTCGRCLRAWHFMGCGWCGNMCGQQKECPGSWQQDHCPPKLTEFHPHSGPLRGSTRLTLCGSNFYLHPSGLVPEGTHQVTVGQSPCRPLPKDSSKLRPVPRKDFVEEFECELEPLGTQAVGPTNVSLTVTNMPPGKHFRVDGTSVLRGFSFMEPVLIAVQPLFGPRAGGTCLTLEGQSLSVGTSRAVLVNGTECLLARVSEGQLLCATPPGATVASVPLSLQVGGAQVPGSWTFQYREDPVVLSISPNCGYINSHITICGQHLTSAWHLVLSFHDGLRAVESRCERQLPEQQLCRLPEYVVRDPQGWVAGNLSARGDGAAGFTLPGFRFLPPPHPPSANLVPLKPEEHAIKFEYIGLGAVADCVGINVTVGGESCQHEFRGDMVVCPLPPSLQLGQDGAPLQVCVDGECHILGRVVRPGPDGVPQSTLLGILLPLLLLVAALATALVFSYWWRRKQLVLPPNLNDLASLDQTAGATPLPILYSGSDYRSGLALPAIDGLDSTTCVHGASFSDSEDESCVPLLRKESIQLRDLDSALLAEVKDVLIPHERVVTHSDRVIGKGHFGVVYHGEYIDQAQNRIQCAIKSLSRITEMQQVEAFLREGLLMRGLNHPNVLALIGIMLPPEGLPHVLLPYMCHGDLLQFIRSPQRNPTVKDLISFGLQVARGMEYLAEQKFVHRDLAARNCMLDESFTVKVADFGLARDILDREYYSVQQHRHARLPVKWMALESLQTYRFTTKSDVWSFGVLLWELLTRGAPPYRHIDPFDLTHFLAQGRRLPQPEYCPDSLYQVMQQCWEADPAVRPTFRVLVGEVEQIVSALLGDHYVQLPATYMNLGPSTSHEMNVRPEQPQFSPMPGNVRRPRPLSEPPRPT

[9] = target: Ribosomal protein S6 kinase alpha-3 (Homo sapiens, UniProt P51812)
Ribosomal protein S6 kinase alpha-3, sequence (P51812 whole entry): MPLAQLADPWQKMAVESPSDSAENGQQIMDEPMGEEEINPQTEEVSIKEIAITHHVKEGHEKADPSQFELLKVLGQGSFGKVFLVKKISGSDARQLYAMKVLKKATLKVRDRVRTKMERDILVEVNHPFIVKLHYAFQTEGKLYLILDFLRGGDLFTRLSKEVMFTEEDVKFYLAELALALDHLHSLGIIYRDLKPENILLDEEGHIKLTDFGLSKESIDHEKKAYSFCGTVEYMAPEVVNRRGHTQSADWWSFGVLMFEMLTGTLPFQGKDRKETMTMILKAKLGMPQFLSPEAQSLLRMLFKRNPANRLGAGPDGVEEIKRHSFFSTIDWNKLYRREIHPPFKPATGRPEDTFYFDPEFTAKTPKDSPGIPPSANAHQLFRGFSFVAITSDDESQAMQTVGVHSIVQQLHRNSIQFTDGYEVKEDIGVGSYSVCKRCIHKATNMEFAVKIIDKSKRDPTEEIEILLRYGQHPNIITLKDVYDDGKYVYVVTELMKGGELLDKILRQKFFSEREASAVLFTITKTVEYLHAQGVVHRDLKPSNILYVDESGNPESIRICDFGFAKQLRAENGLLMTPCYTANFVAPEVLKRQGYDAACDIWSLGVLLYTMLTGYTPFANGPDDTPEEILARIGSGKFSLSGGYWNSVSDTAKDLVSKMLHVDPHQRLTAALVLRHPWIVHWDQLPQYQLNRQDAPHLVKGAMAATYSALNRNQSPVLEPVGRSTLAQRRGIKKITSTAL

[10] = target: Activin receptor type-2B (Homo sapiens, UniProt Q13705)
Activin receptor type-2B, sequence (Q13705 whole entry): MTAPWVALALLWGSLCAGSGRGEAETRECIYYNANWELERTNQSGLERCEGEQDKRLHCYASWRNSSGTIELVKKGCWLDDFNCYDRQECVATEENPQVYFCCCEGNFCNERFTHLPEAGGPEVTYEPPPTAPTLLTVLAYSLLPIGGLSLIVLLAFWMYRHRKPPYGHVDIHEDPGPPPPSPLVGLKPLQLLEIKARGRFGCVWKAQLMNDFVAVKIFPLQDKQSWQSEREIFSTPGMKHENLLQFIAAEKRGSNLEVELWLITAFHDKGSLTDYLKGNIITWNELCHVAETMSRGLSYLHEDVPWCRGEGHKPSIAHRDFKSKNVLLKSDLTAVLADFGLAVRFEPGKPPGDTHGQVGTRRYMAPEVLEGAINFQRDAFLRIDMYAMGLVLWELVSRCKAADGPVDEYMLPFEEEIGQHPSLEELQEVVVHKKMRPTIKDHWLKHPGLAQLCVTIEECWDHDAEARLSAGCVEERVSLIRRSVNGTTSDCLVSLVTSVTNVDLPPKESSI
Also: in the data inactive means no Kd found up to 30 µM.

Mitogen-activated protein kinase 10, sequence (P53779 whole entry): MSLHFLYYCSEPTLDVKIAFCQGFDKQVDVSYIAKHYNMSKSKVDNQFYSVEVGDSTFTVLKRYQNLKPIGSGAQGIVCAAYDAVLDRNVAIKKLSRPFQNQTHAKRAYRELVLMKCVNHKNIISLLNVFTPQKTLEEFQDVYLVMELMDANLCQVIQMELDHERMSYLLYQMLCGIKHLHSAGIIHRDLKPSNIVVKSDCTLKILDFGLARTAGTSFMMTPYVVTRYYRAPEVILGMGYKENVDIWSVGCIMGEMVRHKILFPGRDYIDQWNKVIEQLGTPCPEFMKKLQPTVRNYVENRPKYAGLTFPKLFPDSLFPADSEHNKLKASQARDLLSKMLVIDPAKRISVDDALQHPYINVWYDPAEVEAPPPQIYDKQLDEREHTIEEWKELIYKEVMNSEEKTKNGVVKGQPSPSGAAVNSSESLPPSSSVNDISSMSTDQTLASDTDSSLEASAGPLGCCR
Casein kinase I isoform gamma-1, sequence (Q9HCP0 whole entry, canonical isoform): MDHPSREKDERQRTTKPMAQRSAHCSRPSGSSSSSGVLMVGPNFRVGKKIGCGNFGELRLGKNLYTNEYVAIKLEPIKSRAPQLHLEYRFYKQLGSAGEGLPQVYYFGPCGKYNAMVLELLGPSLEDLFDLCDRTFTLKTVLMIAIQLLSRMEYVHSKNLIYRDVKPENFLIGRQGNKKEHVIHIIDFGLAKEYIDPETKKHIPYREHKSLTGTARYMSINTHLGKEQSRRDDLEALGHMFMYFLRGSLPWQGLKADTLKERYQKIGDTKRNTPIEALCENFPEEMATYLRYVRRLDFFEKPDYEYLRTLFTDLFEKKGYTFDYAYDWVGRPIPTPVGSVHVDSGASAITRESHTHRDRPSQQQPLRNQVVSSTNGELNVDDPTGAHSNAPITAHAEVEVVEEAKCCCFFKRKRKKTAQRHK

Compound | Kd [1] | Kd [2] | Kd [3] | Kd [4] | Kd [5] | Kd [6] | Kd [7] | Kd [8] | Kd [9] | Kd [10] | pKd [2]
CCn1cc(-c2ccnc3[nH]c(-c4cccc(CN(C)C)c4)cc23)c(-c2ccc(NC(=O)N(C)C)cc2)n1 [GSK-1070916] | > 30 µM (inactive) | > 30 µM (inactive) | > 30 µM (inactive) | > 30 µM (inactive) | > 30 µM (inactive) | > 30 µM (inactive) | > 30 µM (inactive) | > 30 µM (inactive) | – | – | –
CNC(=O)c1nn(C)c2c1C(C)(C)Cc1cnc(Nc3ccc(N4CCN(C)CC4)cc3)nc1-2 [MILCICLIB] | > 30 µM (inactive) | – | > 30 µM (inactive) | > 30 µM (inactive) | > 30 µM (inactive) | 1.44 µM (active) | > 30 µM (inactive) | 1.99 µM (active) | > 30 µM (inactive) | > 30 µM (inactive) | –
Cc1[nH]c(/C=C2\C(=O)Nc3ccccc32)c(C)c1CCC(=O)O [ORANTINIB] | – | – | > 30 µM (inactive) | > 30 µM (inactive) | – | – | > 30 µM (inactive) | > 30 µM (inactive) | – | > 30 µM (inactive) | –
NC(=O)c1c(OCc2c(F)cc(Br)cc2F)nsc1NC(=O)NCCCCN1CCCC1 [OSI-632] | – | > 30 µM (inactive) | > 30 µM (inactive) | > 30 µM (inactive) | – | – | – | – | – | > 30 µM (inactive) | –
CCOc1cc2ncc(C#N)c(Nc3ccc(F)c(Cl)c3)c2cc1NC(=O)/C=C/CN(C)C [PELITINIB] | > 30 µM (inactive) | > 30 µM (inactive) | > 30 µM (inactive) | > 30 µM (inactive) | > 30 µM (inactive) | – | > 30 µM (inactive) | > 30 µM (inactive) | > 30 µM (inactive) | > 30 µM (inactive) | –
CC(=O)NCC(=O)N1[C@@H]2CC[C@H]1c1ccc(Nc3ncc(C(F)(F)F)c(NC4CCC4)n3)cc12 [PF-03814735] | – | > 30 µM (inactive) | > 30 µM (inactive) | > 30 µM (inactive) | – | – | > 30 µM (inactive) | – | – | > 30 µM (inactive) | –
CNC(=O)c1cc(Oc2ccc(NC(=O)Nc3cc(C(C)(C)C)nn3-c3ccc4ncccc4c3)c(F)c2)ccn1 [REBASTINIB] | > 30 µM (inactive) | – | > 30 µM (inactive) | > 30 µM (inactive) | > 30 µM (inactive) | – | > 30 µM (inactive) | 0.732 µM (active) | > 30 µM (inactive) | > 30 µM (inactive) | 7.14
O=C(NOCCO)c1cc(CN2OCCCC2=O)c(F)c(F)c1Nc1ccc(I)cc1F [RO-4987655] | – | – | > 30 µM (inactive) | > 30 µM (inactive) | – | – | > 30 µM (inactive) | – | – | – | –
N#CC[C@H](C1CCCC1)n1cc(-c2ncnc3[nH]ccc23)cn1 [RUXOLITINIB] | – | – | > 30 µM (inactive) | – | – | – | – | – | – | – | –
CN1CCN(CCOc2cc(OC3CCOCC3)c3c(Nc4c(Cl)ccc5c4OCO5)ncnc3c2)CC1 [SARACATINIB] | > 30 µM (inactive) | > 30 µM (inactive) | > 30 µM (inactive) | > 30 µM (inactive) | > 30 µM (inactive) | – | > 30 µM (inactive) | > 30 µM (inactive) | > 30 µM (inactive) | 3.88 µM (active) | –
